From paper PMC9697080 (International Journal of Molecular Sciences, 2022)
“And” between values parts separate entries of the source, which are not always exact repeats. Equal entries are not always repeated.

Assays:
[1] = test system: VSV-G-pseudotyped HIV-1 (pHIV-1NL4-3); experiment: microbe, parasite or virus in culture; format: cell-based; conditions: for inhibition at 10 µM: Human immunodeficiency virus 1, SUP-T1, read-out: Inhibition (%) (10 μM), effects on late-stage HIV-1; for EC50: Human immunodeficiency virus 1, read-out: Mean EC50 HIV-1NL4-3
HIV-1 protease [2] = molecular target: T1, HIV-1 protease (Human immunodeficiency virus type 1 group M subtype B, UniProt P04585); experiment: biochemical; format: biochemical; conditions: for IC50: IC50 (HIV-1 protease inhibition)
[3] = Cytotoxicity assay (CCK8 Assay Kit); conditions: human
[4] = test system: DRV-resistant HIV-1 variant pHIV-1DRV^RS (V32I, L33F, I54M, I84V); experiment: microbe, parasite or virus in culture; format: cell-based; conditions: for EC50: Human immunodeficiency virus 1, read-out: Mean EC50 HIVDRV^Rs
HEK293T cells = experiment: Cytotoxicity assay (CCK8 Assay Kit); conditions: HEK293T (293T) cells, CCK8, 24 h
HIV-1 protease [5] = molecular target: T1, HIV-1 protease; experiment: biochemical; format: binding
[6] = test system: influenza virus strain H1N1; parameters: method as in PMID 26077494; conditions: read-out: IC50 against influenza H1N1; cited from earlier work
[7] = test system: influenza virus strain H3N2; parameters: method as in PMID 26077494; conditions: read-out: IC50 against influenza H3N2; cited from earlier work
[8] = test system: influenza virus strain H5N1; conditions: read-out: IC50 against influenza H5N1; cited from earlier work
[9] = HEK293T cells, CC50, HEK293T (293T) cells, CCK8, 24 h

SMILES | inhibition at 10 µM [1] | IC50 (HIV-1 protease [2]) | CC50 at 24 h [3, 9] | other results
COc1ccc(S(=O)(=O)N(CC(C)C)C[C@@H](O)[C@H](Cc2ccccc2)NC(=O)c2cc(OC)c(O)c(OC)c2)cc1 [15h] | 99 ± 2% | 0.08 ± 0.03 nM | 84.7 µM | 
CC(C)CN(C[C@@H](O)[C@H](Cc1ccccc1)NC(=O)c1ccc(O)c(O)c1)S(=O)(=O)c1ccc(N)cc1 [16d] | 100% | 1.63 ± 0.33 nM | > 100 µM | Effectivity in single-round infection assay compared with DRV [1]: equipotent with DRV
COc1cc(O)c(C(=O)N[C@@H](Cc2ccccc2)[C@H](O)CN(CC(C)C)S(=O)(=O)c2ccc(SC)cc2)cc1OC [17i] |  | 4.71 ± 0.18 nM | > 100 µM | 
CC(C)CN(C[C@@H](O)[C@H](Cc1ccccc1)NC(=O)c1ccccc1O)S(=O)(=O)c1ccc(N)cc1 [16a] | 100% | 0.54 ± 0.11 nM | > 100 µM | Effectivity in single-round infection assay compared with DRV [1]: equipotent with DRV
COc1ccc(S(=O)(=O)N(CC(C)C)C[C@@H](O)[C@H](Cc2ccccc2)NC(=O)c2cc(O)cc(O)c2)cc1 [15f] | 100% | 0.0024 ± 0.0004 nM |  | Effectivity in single-round infection assay compared with DRV [1]: equipotent with DRV; EC50 [1]: 28.9 ± 9.21 nM; Fold Resistance, EC50 (mutant)/EC50 (WT) [4]: 1.57 fold; EC50 [4]: 45.5 ± 12.1 nM; Enhancement of enzymatic inhibitory activity compared with DRV (HIV-1 protease [2]): over 200 fold
COc1ccc(S(=O)(=O)N(CC(C)C)C[C@@H](O)[C@H](Cc2ccccc2)NC(=O)c2cc(O)c(O)c(O)c2)cc1 [15g] | 99 ± 1% | 1.13 ± 0.23 nM | > 100 µM | 
COc1ccc(S(=O)(=O)N(CC(C)C)C[C@@H](O)[C@H](Cc2ccccc2)NC(=O)c2ccc(O)c(O)c2)cc1 [15d] | 100% | 0.0059 ± 0.0007 nM | > 20 µM | Effectivity in single-round infection assay compared with DRV [1]: equipotent with DRV; EC50 [1]: 15.4 ± 2.17 nM; EC50 [4]: 402 ± 47.3 nM; CC50 (HEK293T cells): 38.2 µM
COc1ccc(S(=O)(=O)N(CC(C)C)C[C@@H](O)[C@H](Cc2ccccc2)NC(=O)c2ccc(Cl)cc2O)cc1 [15b] | 96 ± 3% | 7.82 ± 0.93 nM | > 20 µM | EC50 [1]: 1400 ± 23 nM; Kd (HIV-1 protease [5]): 7.1 µM; Fold Resistance, EC50 (mutant)/EC50 (WT) [4]: 1.31 fold; EC50 [4]: 1840 ± 39.6 nM; CC50 (HEK293T cells): 33.9 µM
CC(C)CN(C[C@@H](O)[C@H](Cc1ccccc1)NC(=O)c1ccc(O)cc1O)S(=O)(=O)c1ccc(N)cc1 [16e] | 75 ± 8% | 0.43 ± 0.08 nM | > 100 µM | 
CC(C)CN(C[C@@H](O)[C@H](Cc1ccccc1)NC(=O)c1ccc(Cl)cc1O)S(=O)(=O)c1ccc(N)cc1 [16b] | 98 ± 2% | 0.31 ± 0.08 nM | > 100 µM | 
CSc1ccc(S(=O)(=O)N(CC(C)C)C[C@@H](O)[C@H](Cc2ccccc2)NC(=O)c2ccc(Cl)cc2O)cc1 [17b] |  | 2.79 ± 0.44 nM | > 100 µM | 
COc1ccc(C(=O)N[C@@H](Cc2ccccc2)[C@H](O)CN(CC(C)C)S(=O)(=O)c2ccc(N)cc2)c(O)c1 [16c] | 90 ± 6% | 4.14 ± 1.38 nM | > 100 µM | 
COc1ccc(S(=O)(=O)N(CC(C)C)C[C@@H](O)[C@H](Cc2ccccc2)NC(=O)c2ccc(O)cc2O)cc1 [15e] | 75 ± 6% | 0.3 ± 0.08 nM | 78.8 µM | 
CSc1ccc(S(=O)(=O)N(CC(C)C)C[C@@H](O)[C@H](Cc2ccccc2)NC(=O)c2cc(O)cc(O)c2)cc1 [17f] | 100% | 0.0066 ± 0.0021 nM | > 100 µM | Effectivity in single-round infection assay compared with DRV [1]: equipotent with DRV
COc1cc(C(=O)N[C@@H](Cc2ccccc2)[C@H](O)CN(CC(C)C)S(=O)(=O)c2ccc(N)cc2)cc(OC)c1O [16h] | 99 ± 3% | 0.04 ± 0.003 nM | > 100 µM | 
CC(C)CN(C[C@@H](O)[C@H](Cc1ccccc1)NC(=O)O[C@H]1CO[C@H]2OCC[C@H]21)S(=O)(=O)c1ccc(N)cc1 [DRV, Darunavir, reference compound] | 100% |  |  | EC50 [1]: 1.8 ± 0.73 nM; EC50 [4]: 136.8 ± 1.12 nM; CC50 at 24 h [3]: > 100 µM
COc1ccc(C(=O)N[C@@H](Cc2ccccc2)[C@H](O)CN(CC(C)C)S(=O)(=O)c2ccc(SC)cc2)c(O)c1 [17c] |  | 8.21 ± 1.2 nM | > 100 µM | 
CC(C)CN(C[C@@H](O)[C@H](Cc1ccccc1)NC(=O)c1cc(O)cc(O)c1)S(=O)(=O)c1ccc(N)cc1 [16f] | 99 ± 2% | 0.27 ± 0.03 nM | > 100 µM | 
CSc1ccc(S(=O)(=O)N(CC(C)C)C[C@@H](O)[C@H](Cc2ccccc2)NC(=O)c2ccc(O)cc2O)cc1 [17e] |  | 0.4 ± 0.08 nM | > 100 µM | 
CSc1ccc(S(=O)(=O)N(CC(C)C)C[C@@H](O)[C@H](Cc2ccccc2)NC(=O)c2ccccc2O)cc1 [17a] |  | 3.97 ± 0.41 nM | > 100 µM | 
COc1cc(O)c(C(=O)N[C@@H](Cc2ccccc2)[C@H](O)CN(CC(C)C)S(=O)(=O)c2ccc(N)cc2)cc1OC [16i] |  | 0.6 ± 0.18 nM | > 100 µM | 
CC(C)CN(C[C@@H](O)[C@H](Cc1ccccc1)NC(=O)c1cc(O)c(O)c(O)c1)S(=O)(=O)c1ccc(N)cc1 [16g] | 55 ± 6% | 68 nM and 68.2 nM | 57.6 µM | 
CSc1ccc(S(=O)(=O)N(CC(C)C)C[C@@H](O)[C@H](Cc2ccccc2)NC(=O)c2ccc(O)c(O)c2)cc1 [17d] | 100% | 0.0076 ± 0.0029 nM | > 100 µM | Effectivity in single-round infection assay compared with DRV [1]: equipotent with DRV
COc1cc(C(=O)N[C@@H](Cc2ccccc2)[C@H](O)CN(CC(C)C)S(=O)(=O)c2ccc(SC)cc2)cc(OC)c1O [17h] |  | 0.32 ± 0.03 nM | > 100 µM | 
COc1ccc(S(=O)(=O)N(CC(C)C)C[C@@H](O)[C@H](Cc2ccccc2)NC(=O)c2ccccc2O)cc1 [15a] | 98 ± 2% | 3.34 ± 0.28 nM | > 100 µM | 
O=c1oc2cc(/C=C/c3ccc(O)c(O)c3)oc(=O)c2c2cc(O)c(O)cc12 [Phelligridin D] |  |  |  | IC50 [6]: 8.8 µM; IC50 [7]: 10.3 µM; IC50 [8]: 10.9 µM
COc1ccc(S(=O)(=O)N(CC(C)C)C[C@@H](O)[C@H](Cc2ccccc2)NC(=O)c2cc(OC)c(OC)cc2O)cc1 [15i] |  | 1.41 ± 0.43 nM | > 100 µM | 
COc1ccc(S(=O)(=O)N(CC(C)C)C[C@@H](O)[C@H](Cc2ccccc2)NC(=O)c2ccc(OC)cc2O)cc1 [15c] | 92 ± 5% | 4.68 ± 0.74 nM | > 100 µM | 
